What all share (assay type): in vivo, BALB/c mice
The nature of data set [1]: Epacadostat absolute quantification in CT26 tumor sections by QMSI (MALDI MSI). The method, then:
(§1) Colon carcinoma CT26 cell line was subcutaneously grafted into BALB/c mice (Charles River Laboratories, France). […] Tumors were sampled and snap frozen in liquid nitrogen for 15 s. The samples were kept at −80° C. until use. Ten micrometers thick tissue sections were obtained using a cryostat microtome (CM-3050S, Leica, Germany) with a microtome chamber and a specimen holder chilled at −23° C. Tissue sections were thaw mounted onto ITO-coated slides for downstream MALDI imaging and serial sections on SuperFrost slide for histological and immunohistochemistry (IHC) analysis. Biological replicates in duplicate (distant serial sections) were performed for analytical reproducibility. […] All animal experiments were compliant with the 2010/63/UE European Directive on Laboratory Animal Welfare and were approved by an Ethical Committee.
Then, low limit of detection (LOD), low limit of quantitation (LLOQ) and limit of linearity parameters were defined for the calibration curve that has been performed using at least 10 spotted concentrations on 10 μm thickness control tumor tissue sections. […] On the same ITO slide, calibration curve and tissue sections of interest (1 control and 3 treated in duplicates) were deposited and analyzed. Then, a uniform layer of filtrated 1,5-diaminonaphtalene (1,5-DAN) prepared at 10 mg/mL with 50/50 ACN/H2O matrix was deposited onto the tumor tissue sections using an HTX-TM sprayer device (HTX Technologies, LLC, Carrboro, N.C.). MALDI MSI analyses were performed using 7T MALDI-FTICR (SolariX XR, Bruker Daltonics, Bremen, Germany) with a SmartBeam II laser. […] Data acquisition was performed using the Flex software (FtmsControl 2.1.0) from Bruker Daltonics. Then, Multimaging software (ImaBiotech SAS) was used to obtain the calculated equation and to extract the different quantities in pmol/mm^2. A quantity conversion to μg/g of tissue was then obtained in created regions of interest (ROIs).
1.2 software (ImaBiotech SAS). This multimodal imaging platform combines quantitative mass spectrometry imaging (QMSI) and microscopy platform with statistical analysis for the understanding of the Omics information at cellular levels. MSI data were acquired from each tissue section as well as matrix control areas adjacent to the tissue sections to check for analyte dispersion/delocalization during sample preparation. Therefore, the ROIs related to EPA and/or Kyn presence were given by an image segmentation algorithm. […] Then, the algorithm smoothed the two ROIs to transform them into connected spaces. Finally, an exposure score was calculated using the Multimaging software using the formula: […]

A short description of data set [2]: Epacadostat quantification in CT26 tumor sections by LC-MS/MS. The settings on record: BALB/c, mouse, CT26 tumor tissue sections, 100 mg/kg oral gavage.
The nature of data set [3]: Epacadostat quantification in plasma and blood. The settings on record: BALB/c, mouse, 100 mg/kg oral.
Data set [4] has as its target T1, IDO1 (Mus musculus, UniProt P28776).
T1 construct: Colon carcinoma CT26 cell line was subcutaneously grafted into BALB/c mice; from tissue
Put plainly: Regional exposure to response analysis in segmented ROIs of treated CT26 tumor (Kyn, Lactate, IDO1 immunostaining). The method, then: as §1
As Kyn was not detectable and Trp was slightly seen using classical method in CT26 tumor models, a derivatization strategy was necessary. The derivatization reaction amounts to adding the C11H16N+ (as X) unit to the neutral analyte. The agent was applied using an automatic sprayer (Suncollect, Sunchrom) and left during 30 min for incubation at room temperature. […] MSI data for kynurenine and tryptophan was recorded in positive ion mode (CASI, m/z range 350.0+/−150) at 120 μm of spatial resolution using an online calibration. […]
For MALDI MSI of other metabolites, a uniform layer of filtrated 1,5-diaminonaphtalene (1,5-DAN) prepared at 10 mg/mL with 50/50 ACN/H2O matrix was deposited onto the tumor tissue sections using an HTX-TM sprayer device (HTX Technologies, LLC, Carrboro, N.C.). […] MSI data for metabolites were recorded in full scan negative ion mode (m/z range 100-1000) at 120 μm of spatial resolution using an online calibration. […]
1.2 software (ImaBiotech SAS). This multimodal imaging platform combines quantitative mass spectrometry imaging (QMSI) and microscopy platform with statistical analysis for the understanding of the Omics information at cellular levels. […] Finally, an exposure score was calculated using the Multimaging software using the formula: […]

SMILES strings stand for the structures.

T1 sequence (P28776 whole entry): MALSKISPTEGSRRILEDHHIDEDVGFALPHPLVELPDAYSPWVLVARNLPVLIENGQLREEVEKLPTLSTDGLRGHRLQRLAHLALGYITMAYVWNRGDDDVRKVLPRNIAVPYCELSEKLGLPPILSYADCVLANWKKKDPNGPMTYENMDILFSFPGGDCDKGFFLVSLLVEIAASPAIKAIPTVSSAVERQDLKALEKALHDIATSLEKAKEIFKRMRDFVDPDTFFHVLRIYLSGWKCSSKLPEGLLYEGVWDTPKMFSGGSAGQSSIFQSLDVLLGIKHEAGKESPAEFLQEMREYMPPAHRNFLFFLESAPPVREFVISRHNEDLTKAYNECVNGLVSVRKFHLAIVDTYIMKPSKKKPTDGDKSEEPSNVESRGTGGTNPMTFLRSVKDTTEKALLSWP

In data set [1] (BALB/c, mouse, CT26 tumor relative to plasma, oral, 100 mg/kg, treated CT26 tumors, LC-MS/MS and QMSI), `NS(=O)(=O)NCCNc1nonc1C(=NO)Nc1ccc(F)c(Br)c1` [EPA, Epacadostat] yielded a Kp at 2 h of 3 to 4. Besides, the concentration at 2 h in data set [1] (BALB/c, mouse, CT26 tumor section, ROI 1 (high EPA region), oral, 100 mg/kg, EPA quantity in ROI 1 (high EPA), QMSI, ROI 1 = 38% of tumor surface) is 68000 ng/g; in data set [1] (BALB/c, mouse, CT26 tumor section, ROI 1, oral, 100 mg/kg, EPA quantity corresponding to the share in ROI 1, 61% of EPA signal), 26000 ng/g; in data set [1] (BALB/c, mouse, CT26 tumor section, ROI 2 (low EPA region), oral, 100 mg/kg, EPA quantity in ROI 2 (low EPA), QMSI, ROI 2 = 62% of tumor surface), 25000 ng/g; in data set [1] (BALB/c, mouse, CT26 tumor section, ROI 2, oral, 100 mg/kg, EPA quantity corresponding to the share in ROI 2, 39% of EPA signal), 15000 ng/g; in data set [1] (BALB/c, mouse, CT26 tumor section, ROI 3 (entire section), oral, 100 mg/kg, EPA quantity in ROI 3 (entire treated tumor section), QMSI), 42000 ng/g; in data set [1] (BALB/c, mouse, CT26 tumor tissue sections, po, 100 mg/kg, EPA quantity in treated CT26 tumor sections, three biological triplicates, QMSI, 100 mg/kg oral gavage, sacrificed 2 hours later), 38000 to 53000 ng/g. In addition, the concentration at 2 h in data set [1] (BALB/c, mouse, CT26 tumor tissue sections, po, 100 mg/kg, average EPA quantity in CT26 tumor, QMSI, 100 mg/kg oral gavage, 2 hours) was 46000 ng/g; in data set [1] (BALB/c, mouse, CT26 tumor tissue, oral, 100 mg/kg, available on tissue quantity of EPA in treated CT26 tumors, LC-MS/MS and QMSI), 35000 to 48000 ng/g; in data set [2], 38500 ng/g; in data set [3] (plasma), 6600 ng/g; in data set [3] (whole blood) it was 7300 ng/g. Further, the “share of EPA signal concentrated in ROI 1” value in data set [1] (ROI 1 = 38% of entire tissue section) is around 61%. In addition, the “share of EPA signal in ROI 2” value in data set [1] (ROI 2 = 62% left tumor region) is given as 39%. Moreover, the “correlation between IDO1 expression level (semi-quantitative histology) and EPA levels” value in data set [4] (IDO1 immunostaining on serial section) is listed as “positive correlation”. Further, the “share of Kyn present in ROI 1 (high EPA)” value in data set [4] (ROI 1 = 38% of the entire tumor) was 15%. The “share of Kyn present in ROI 2 (low EPA)” value in data set [4] (ROI 2) stood at 85%.
